Data on one compound can be found in patent US9765083B2, “Method for the synthesis of irinotecan” (Synbias Pharma AG, priority 2013, dated 2017).

A short description of the series: solubility of 7-des-ethyl-irinotecan compared with camptothecin and 10-hydroxycamptothecin. Format: physicochemical. Conditions: as compared to camptothecin and 10-hydroxycamptothecin; solvent not stated.

Take `CC[C@@]1(O)C(=O)OCc2c1cc1n(c2=O)Cc2cc3cc(OC(=O)N4CCC(N5CCCCC5)CC4)ccc3nc2-1` [7-des-ethyl-irinotecan, 10-[4-(1-piperidino)-1-piperidino]carbonyloxycamptothecin]: the solubility entry is reported as “significantly better solubility”.
